The text below walks through data of US4521423A, “7,8,9,10-Tetrahydrobenzo[h]quinolin-9-amine derivatives and compositions and methods for treating depression employing them” (Ayerst, McKenna & Harrison, Ltd., priority 1983, dated 1985).

Assay [1] concerns serotonin uptake. The assay can be described thus: in vitro [3H]serotonin uptake inhibition, rat brain preparation. The assay is classed as biochemical. The conditions noted are these: concentration of 1×10^-6 moles. An excerpt:
(§1) For example, the ability of the present compounds to block substantially the uptake of norepinephrine and serotonin, characteristic properties of antidepressants, can be shown in the in vitro test using rat brain preparation as described by M. H. Kannengiesser, P. Hunt and J.-P. Raynaud, Biochem. Pharmacol., 22, 73 (1973); see also E. G. Shaskan and S. H. Snyder, J. Pharmacol. Exptl. Therap., 175, 404 (1970), and J. Glowinski and L. L. Iversen, J. Neurochemistry, 13, 655 (1966).

In assay [2] the test system is norepinephrine uptake. The assay can be described thus: in vitro [3H]norepinephrine uptake inhibition, rat brain preparation. Type of assay: biochemical. Particulars: concentration of 1×10^-6 moles.
From the text: as §1

`CCCN(CCC)C1CCc2ccc3cccnc3c2C1` (centres unmarked) [7,8,9,10-Tetrahydro-N,N-dipropylbenzo[h]quinolin-9-amine]: the “inhibition of [3H]serotonin uptake” value in assay [1] is listed as 57%. In assay [2], the “inhibition of [3H]norepinephrine uptake” value was 52%.
